Residues, ends and D or L forms follow the SMILES beside them.
Organism: Rattus norvegicus
Assay: Agonist activity relative to angiotensin II in uterine contraction was estimated in rat using rat oxytocic assay

Structure (SMILES) | Relative activity [%]
CC(C)[C@H](NC(=O)[C@H](CCCN=C(N)N)NC(=O)[C@@H](N)CC(=O)O)C(=O)N[C@@H](Cc1ccc(O)cc1)C(=O)N[C@@H](C(=O)N[C@@H](Cc1c[nH]cn1)C(=O)N1CCC[C@H]1C(=O)N[C@@H](Cc1ccccc1)C(=O)O)C(C(F)(F)F)C(F)(F)F (HELM PEPTIDE1{D.R.V.Y.[O=C([C@H](N[*:1])C(C(F)(F)F)C(F)(F)F)[*:2]].H.P.F}$$$$V2.0) | <1
CC(C)[C@H](NC(=O)[C@H](CCCN=C(N)N)NC(=O)[C@@H](N)CC(=O)O)C(=O)N[C@@H](Cc1ccc(O)cc1)C(=O)N[C@H](C(=O)N[C@@H](Cc1c[nH]cn1)C(=O)N1CCC[C@H]1C(=O)N[C@@H](Cc1ccccc1)C(=O)O)C(C(F)(F)F)C(F)(F)F (HELM PEPTIDE1{D.R.V.Y.[O=C([C@@H](N[*:1])C(C(F)(F)F)C(F)(F)F)[*:2]].H.P.F}$$$$V2.0) | 133
